Some results are limits rather than exact numbers.

One may read the IC50 as the midpoint of a concentration-inhibition curve.

The target in this assay is Human complement C1s enzyme (Homo sapiens (Human), UniProt P09871). Description: Human C1s enzyme assay. It counts as biochemical. Conditions: Human complement C1s enzyme 1.16 nM, substrate Z-L-Lys-SBzl 100 μM, assay of Example 3; read-out: IC50 (Stars). Put shortly: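 Purified serum-derived human C1s (1.16 nM final) preincubated 5 min at room temperature with compound in 50 mM Tris, 1 M NaCl, pH 7.5. Z-L-Lys-SBzl thioester substrate and DTNB added (100 μM each, final); A405 read every 30 s for 30 min. IC50 from nonlinear regression of reaction rates against compound concentration.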
Sequence of Human complement C1s enzyme (P09871 438-688 limits assumed): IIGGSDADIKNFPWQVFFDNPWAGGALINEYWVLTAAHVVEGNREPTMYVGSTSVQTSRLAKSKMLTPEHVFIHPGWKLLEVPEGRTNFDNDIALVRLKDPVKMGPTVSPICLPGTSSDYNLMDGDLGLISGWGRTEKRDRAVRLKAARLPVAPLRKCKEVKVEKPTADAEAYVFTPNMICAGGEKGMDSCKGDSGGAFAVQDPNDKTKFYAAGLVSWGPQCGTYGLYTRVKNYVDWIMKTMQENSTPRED
Sequence of Human complement C1s enzyme (P09871 16-437 partner limits assumed): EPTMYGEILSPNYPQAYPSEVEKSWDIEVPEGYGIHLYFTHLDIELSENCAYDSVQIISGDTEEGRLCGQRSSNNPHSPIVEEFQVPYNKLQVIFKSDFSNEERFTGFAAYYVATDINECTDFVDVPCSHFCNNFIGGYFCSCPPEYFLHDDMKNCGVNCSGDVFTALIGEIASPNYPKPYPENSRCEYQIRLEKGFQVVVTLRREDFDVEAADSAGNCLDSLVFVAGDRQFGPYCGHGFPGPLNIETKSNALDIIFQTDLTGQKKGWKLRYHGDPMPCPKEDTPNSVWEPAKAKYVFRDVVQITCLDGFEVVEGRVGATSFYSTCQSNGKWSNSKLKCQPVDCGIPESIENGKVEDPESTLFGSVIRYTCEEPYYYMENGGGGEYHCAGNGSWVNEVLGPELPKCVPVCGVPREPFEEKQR
Take `Cc1nc(F)ccc1-c1ccc(C(=O)NCC(=O)N2CC3(C[C@H]2C(=O)NCc2cc(C(=N)N)cs2)OCCO3)cc1` [Compound 211, (S)—N-((4-carbamimidoylthiophen-2-yl)methyl)-7-((4-(6-fluoro-2-methylpyridin-3-yl)benzoyl)glycyl)-1,4-dioxa-7-azaspiro[4.4]nonane-8-carboxamide]: the IC50 was less than 100 nM. The value for `N=C(N)c1csc(CNC(=O)[C@@H]2CC3(CN2C(=O)CNC(=O)c2ccc(-c4ccc(F)c(C(=O)O)c4)cc2)OCCO3)c1` [Compound 212, (S)-4′-((2-(8-(((4-carbamimidoylthiophen-2-yl)methyl)carbamoyl)-1,4-dioxa-7-azaspiro[4.4]nonan-7-yl)-2-oxoethyl)carbamoyl)-4-fluoro-[1,1′-biphenyl]-3-carboxylic acid] was less than 100 nM; that for `N=C(N)c1csc(CNC(=O)[C@@H]2CC3(CN2C(=O)CNC(=O)c2ccc(-c4ccc(C(=O)O)c(F)c4)cc2)OCCO3)c1` [Compound 213, (S)-4′-((2-(8-(((4-carbamimidoylthiophen-2-yl)methyl)carbamoyl)-1,4-dioxa-7-azaspiro[4.4]nonan-7-yl)-2-oxoethyl)carbamoyl)-3-fluoro-[1,1′-biphenyl]-4-carboxylic acid] was greater than 1000 nM; that for `N=C(N)c1csc(CNC(=O)[C@@H]2CC3(CN2C(=O)CNC(=O)c2ccc(-c4ccc(C(=O)O)cc4)cc2)OCCO3)c1` [Compound 214, (S)-4′-((2-(8-(((4-carbamimidoylthiophen-2-yl)methyl)carbamoyl)-1,4-dioxa-7-azaspiro[4.4]nonan-7-yl)-2-oxoethyl)carbamoyl)-[1,1′-biphenyl]-4-carboxylic acid] was less than 100 nM.

With `CS(=O)(=O)c1ccc(-c2ccc(C(=O)NCC(=O)N3CC4(C[C@H]3C(=O)NCc3cc(C(=N)N)cs3)OCCO4)cc2)c(F)c1` [Compound 215, (S)—N-((4-carbamimidoylthiophen-2-yl)methyl)-7-((2′-fluoro-4′-(methylsulfonyl)-[1,1′-biphenyl]-4-carbonyl)glycyl)-1,4-dioxa-7-azaspiro[4.4]nonane-8-carboxamide], the IC50 was less than 100 nM. The value for `CC(C)S(=O)(=O)c1ccc(-c2ccc(C(=O)NCC(=O)N3CC4(C[C@H]3C(=O)NCc3cc(C(=N)N)cs3)OCCO4)cc2)cc1` [Compound 216, (S)—N-((4-carbamimidoylthiophen-2-yl)methyl)-7-((4′-(isopropylsulfonyl)-[1,1′-biphenyl]-4-carbonyl)glycyl)-1,4-dioxa-7-azaspiro[4.4]nonane-8-carboxamide] was less than 100 nM; that for `COc1ccc(-c2ccc(C(=O)NCC(=O)N3CC4(C[C@H]3C(=O)NCc3cc(C(=N)N)cs3)OCCO4)cc2)cc1` [Compound 217, (S)—N-((4-carbamimidoylthiophen-2-yl)methyl)-7-((4′-methoxy-[1,1′-biphenyl]-4-carbonyl)glycyl)-1,4-dioxa-7-azaspiro[4.4]nonane-8-carboxamide] was less than 100 nM. The value for `C[C@@H](NC(=O)[C@@H]1C[C@@H](c2ccccc2)CN1C(=O)CNC(=O)c1ccc2oc3ccccc3c2c1)c1cc(C(=N)N)cs1` [Compound 218, (2S,4S)—N—((R)-1-(4-carbamimidoylthiophen-2-yl)ethyl)-1-((dibenzo[b,d]furan-2-carbonyl)glycyl)-4-phenylpyrrolidine-2-carboxamide] was less than 100 nM; that for `C[C@@H](NC(=O)[C@@H]1C[C@@H](S(C)(=O)=O)CN1C(=O)CNC(=O)c1ccc2oc3ccccc3c2c1)c1cc(C(=N)N)cs1` [Compound 220, (2S,4R)—N—((R)-1-(4-carbamimidoylthiophen-2-yl)ethyl)-1-((dibenzo[b,d]furan-2-carbonyl)glycyl)-4-(methylsulfonyl)pyrrolidine-2-carboxamide] was less than 100 nM. As for `CO[C@@H]1C[C@@H](C(=O)N[C@H](C)c2cc(C(=N)N)cs2)N(C(=O)CNC(=O)c2ccc3oc4ccccc4c3c2)C1` [Compound 221, (2S,4R)—N—((R)-1-(4-carbamimidoylthiophen-2-yl)ethyl)-1-((dibenzo[b,d]furan-2-carbonyl)glycyl)-4-methoxypyrrolidine-2-carboxamide], the IC50 is less than 100 nM.

On to `COC[C@@]1(F)C[C@@H](C(=O)N[C@H](C)c2cc(C(=N)N)cs2)N(C(=O)CNC(=O)c2ccc3oc4ccccc4c3c2)C1` [Compound 222, (2S,4R)—N—((R)-1-(4-carbamimidoylthiophen-2-yl)ethyl)-1-((dibenzo[b,d]furan-2-carbonyl)glycyl)-4-fluoro-4-(methoxymethyl)pyrrolidine-2-carboxamide], for which the IC50 was less than 100 nM.

As for `C[C@@H](NC(=O)[C@@H]1C[C@](F)(CF)CN1C(=O)CNC(=O)c1ccc2oc3ccccc3c2c1)c1cc(C(=N)N)cs1` [Compound 223, (2S,4R)—N—((R)-1-(4-carbamimidoylthiophen-2-yl)ethyl)-1-((dibenzo[b,d]furan-2-carbonyl)glycyl)-4-fluoro-4-(fluoromethyl)pyrrolidine-2-carboxamide], the IC50 was less than 100 nM. Next, `COC[C@@]1(F)C[C@@H](C(=O)N[C@H](C)c2cc(C(=N)N)cs2)N(C(=O)CNC(=O)c2ccc3cc4ccccc4cc3c2)C1` [Compound 224, (2S,4R)-1-[2-(anthracen-2-ylformamido)acetyl]-N-[(1R)-1-(4-carbamimidoylthiophen-2-yl)ethyl]-4-fluoro-4-(methoxymethyl)pyrrolidine-2-carboxamide]: less than 100 nM. In the case of `C[C@@H](NC(=O)[C@@H]1CC2(CN1C(=O)CNC(=O)c1ccc3c(c1)-c1cc(F)ccc1C3(F)F)OCCO2)c1cc(C(=N)N)cs1` [Compound 225, (S)—N—((R)-1-(4-carbamimidoylthiophen-2-yl)ethyl)-7-((6,9,9-trifluoro-9H-fluorene-3-carbonyl)glycyl)-1,4-dioxa-7-azaspiro[4.4]nonane-8-carboxamide], the IC50 was less than 100 nM. Consider `C[C@H]1C[C@@H](C(=O)N[C@H](C)c2cc(C(=N)N)cs2)N(C(=O)CNC(=O)c2ccc3oc4ccccc4c3c2)C1` [Compound 226, (2S,4S)—N—((R)-1-(4-carbamimidoylthiophen-2-yl)ethyl)-1-((dibenzo[b,d]furan-2-carbonyl)glycyl)-4-methylpyrrolidine-2-carboxamide], for which the IC50 is less than 100 nM. Take `N=C(N)c1csc(CNC(=O)[C@@H]2CC3(CN2C(=O)CNC(=O)c2ccc(-c4ccc(F)cc4C(=O)O)cc2)OCCO3)c1` [Compound 227, (S)-4′-((2-(8-(((4-carbamimidoylthiophen-2-yl)methyl)carbamoyl)-1,4-dioxa-7-azaspiro[4.4]nonan-7-yl)-2-oxoethyl)carbamoyl)-4-fluoro-[1,1′-biphenyl]-2-carboxylic acid]: the IC50 was less than 100 nM.

For `N=C(N)c1csc(CNC(=O)[C@@H]2CC3(CN2C(=O)CN2Cc4cc(-c5ccc(F)cc5F)ccc4C2=O)OCCO3)c1` [Compound 228, (S)—N-((4-carbamimidoylthiophen-2-yl)methyl)-7-(2-(5-(2,4-difluorophenyl)-1-oxoisoindolin-2-yl)acetyl)-1,4-dioxa-7-azaspiro[4.4]nonane-8-carboxamide], the half-inhibitory concentration (IC50) is less than 100 nM. With `N=C(N)c1csc(CNC(=O)[C@@H]2CC3(CN2C(=O)CN2Cc4ccc(-c5ccc(F)cc5F)cc4C2=O)OCCO3)c1` [Compound 229, (S)—N-((4-carbamimidoylthiophen-2-yl)methyl)-7-(2-(6-(2,4-difluorophenyl)-1-oxoisoindolin-2-yl)acetyl)-1,4-dioxa-7-azaspiro[4.4]nonane-8-carboxamide], the IC50 is less than 100 nM. For `N=C(N)c1csc(CNC(=O)[C@@H]2CC3(CN2C(=O)CN2Cc4cc(-c5ccc(F)cc5)ccc4C2=O)OCCO3)c1` [Compound 230], the IC50 was less than 100 nM.

`N=C(N)c1csc(CNC(=O)[C@@H]2CC3(CN2C(=O)CN2Cc4cc(-c5ccccc5)ccc4C2=O)OCCO3)c1` [Compound 231, (S)—N-((4-carbamimidoylthiophen-2-yl)methyl)-7-(2-(1-oxo-5-phenylisoindolin-2-yl)acetyl)-1,4-dioxa-7-azaspiro[4.4]nonane-8-carboxamide]: the IC50 was less than 100 nM. The value for `COC[C@@]1(F)C[C@@H](C(=O)N[C@H](C)c2cc(/C(N)=N\C(=O)OC)cs2)N(C(=O)CNC(=O)c2ccc3c(c2)-c2ccccc2C3(F)F)C1` [Compound 232, methyl ((E)-amino(5-((R)-1-((2S,4R)-1-((9,9-difluoro-9H-fluorene-3-carbonyl)glycyl)-4-fluoro-4-(methoxymethyl)pyrrolidine-2-carboxamido)ethyl)thiophen-3-yl)methylene)carbamate] was less than 100 nM; that for `COC(=O)/N=C(/N)c1csc([C@@H](C)NC(=O)[C@@H]2C[C@](F)(CF)CN2C(=O)CNC(=O)c2ccc(Oc3ccc(F)cc3)cc2)c1` [Compound 233, methyl ((E)-amino(5-((R)-1-((2S,4R)-4-fluoro-4-(fluoromethyl)-1-((4-(4-fluorophenoxy)benzoyl)glycyl)pyrrolidine-2-carboxamido)ethyl)thiophen-3-yl)methylene)carbamate] was less than 100 nM. The value for `CCCCCCOC(=O)/N=C(/N)c1csc([C@@H](C)NC(=O)[C@@H]2C[C@](F)(CF)CN2C(=O)CNC(=O)c2ccc(Oc3ccc(F)cc3)cc2)c1` [Compound 234, hexyl ((E)-amino(5-((R)-1-((2S,4R)-4-fluoro-4-(fluoromethyl)-1-((4-(4-fluorophenoxy)benzoyl)glycyl)pyrrolidine-2-carboxamido)ethyl)thiophen-3-yl)methylene)carbamate] was less than 100 nM; that for `C[C@@H](NC(=O)[C@@H]1C[C@](F)(CF)CN1C(=O)CNC(=O)c1ccc2cc3ccccc3cc2c1)c1cc(C(=N)N)cs1` [Compound 235, (2S,4R)-1-((anthracene-2-carbonyl)glycyl)-N—((R)-1-(4-carbamimidoylthiophen-2-yl)ethyl)-4-fluoro-4-(fluoromethyl)pyrrolidine-2-carboxamide] was less than 100 nM.

The values are drawn from patent publication US20250346585A1 (Alexion Pharmaceuticals, Inc., priority 2022, published 2025).
